In US7582694B2, “Antimicrobial lubricant for wood fiber-plastic composites” (Lonza, Inc., priority 2002, dated 2009):

Key:
C. globosum = assay: agar plate method, inhibition of fungus growth; type: cell-based; details: for percent inhibition (retardation) of the fungal growth, C. globosum: aqueous solution
Protocol: (§1) The efficacy of aqueous solutions of alkyldimethylbenzyl ammonium lauryl sulfate and didecyldimethyl ammonium lauryl sulfate to inhibit fungus growth was evaluated by the agar plate method known in the art. Also tested were two commercially known biocides: didecyldimethyl ammonium chloride (Bardac® 2080) and alkyldimethylbenzyl ammonium chloride (Barquat® MB-80).
(§2) The test data are reported as a percent inhibition (retardation) of the fungal growth.

P. placenta = assay: agar plate method, inhibition of fungus growth; type: cell-based; details: for percent inhibition (retardation) of the fungal growth, P. placenta: aqueous solution
Protocol: as §1, §2

T. versicolor = assay: agar plate method, inhibition of fungus growth; type: cell-based; details: for percent inhibition (retardation) of the fungal growth, T. versicolor: aqueous solution
Protocol: as §1, §2

G. trabeum = assay: agar plate method, inhibition of fungus growth; type: cell-based; details: for percent inhibition (retardation) of the fungal growth, G. trabeum: aqueous solution
Protocol: as §1, §2

[1] = tested on: brown-rot fungus G. trabeum; assay: standard soil block test (American Wood Preservation Association E10) on extruded composites; details: extruded samples containing the salt vs conventional lubricant control; 22 weeks G. trabeum
Protocol: The efficacy of extruded samples containing alkyldimethylbenzyl ammonium lauryl sulfate or didecyldimethyl ammonium lauryl sulfate to inhibit fungal growth was evaluated by the standard soil block test method (American Wood Preservation Association E10) known in the art. The biocide effectiveness is determined by % weight loss in wood component of the tested samples. The sample blocks (13 mm×14 mm×14 mm) were exposed to the brown-rot fungus G. trabeum for 22 weeks, with four replicates per treatment.

[2] = Chaetomium globosum, read-out: percent inhibition (retardation) of the fungal growth, C. globosum
[3] = read-out: percent inhibition (retardation) of the fungal growth, P. placenta
[4] = Trametes versicolor, read-out: percent inhibition (retardation) of the fungal growth, T. versicolor
[5] = Gloeophyllum trabeum, read-out: percent inhibition (retardation) of the fungal growth, G. trabeum

Row | Molecule | percent inhibition (retardation) of the fungal growth, C. globosum (C. globosum; 50 ppm) [%] | percent inhibition (retardation) of the fungal growth, C. globosum (C. globosum; 500 ppm) [%] | percent inhibition (retardation) of the fungal growth, P. placenta (P. placenta; 50 ppm) [%] | percent inhibition (retardation) of the fungal growth, P. placenta (P. placenta; 500 ppm) [%] | percent inhibition (retardation) of the fungal growth, T. versicolor (T. versicolor; 50 ppm) [%] | percent inhibition (retardation) of the fungal growth, T. versicolor (T. versicolor; 500 ppm) [%] | percent inhibition (retardation) of the fungal growth, G. trabeum (G. trabeum; 50 ppm) [%] | percent inhibition (retardation) of the fungal growth, G. trabeum (G. trabeum; 500 ppm) [%] | inhibition at 50 ppm (C. globosum; [2]) [%] | inhibition at 500 ppm (C. globosum; [2]) [%] | inhibition at 50 ppm (P. placenta; [3]) [%] | inhibition at 500 ppm (P. placenta; [3]) [%] | inhibition at 50 ppm (T. versicolor; [4]) [%] | inhibition at 500 ppm (T. versicolor; [4]) [%] | inhibition at 50 ppm (G. trabeum; [5]) [%] | inhibition at 500 ppm (G. trabeum; [5]) [%] | weight loss compared with control samples [1]
1 | alkyldimethylbenzyl ammonium chloride [reference compound] | 63.8 | 81.8 | 86.8 | 87.5 | 55.0 | 85.0 | 82.1 | 89.0 |  |  |  |  |  |  |  |  | 
2 | CCCCCCCCCC[N+](C)(C)CCCCCCCCCC [didecyldimethyl ammonium chloride, reference compound] |  |  |  |  |  |  |  |  | 68.2 | 74.3 | 88.4 | 89.2 | 36.8 | 80.7 | 78.4 | 82.4 | 
3 | alkyldimethylbenzyl ammonium lauryl sulfate | 64.5 | 75.6 | 83.0 | 86.6 | 32.2 | 72.9 | 51.7 | 82.3 |  |  |  |  |  |  |  |  | significantly lower weight loss than the control samples
4 | Didecyldimethyl ammonium lauryl sulfate | 68.0 | 78.7 | 82.6 | 86.0 | 44.0 | 81.3 | 58.0 | 80.8 |  |  |  |  |  |  |  |  | significantly lower weight loss than the control samples
